Format in all cases: binding, sheep
The subject of assay [1] is antibody 1 raised against Immunogen IV. In words: Biochip competitive immunoassay, antibody 1. On the procedure:
(§1) A semi-automated Evidence Investigator analyser (Randox Laboratories Ltd., Crumlin, UK) was used as the platform for a biochip assay for the detection of phenylpiperazines.
(§2) Immunogens were administered to 16-month old Suffolk sheep on a monthly basis to provide target specific polyclonal antisera. The immunisation mixture was prepared by adding 2 mg of immunogen prepared in PBS at a ratio of 50% Immunogen/PBS with 50% Freund's Complete adjuvant (Sigma, Product Number—F5881) and emulsifying the mixture to prepare the final product for immunisation. On day 0, 1 ml of the mixture described above was administered intramuscularly to adult sheep. Subsequent boosts (a total of 20 boosts) were administered intramuscularly to each sheep every 30 days. Freund's complete adjuvant (Sigma, Product Number—F5881) was used for primary immunizations and Freund's incomplete adjuvant (Sigma product Number—F5506) was used for all subsequent injections. Routine bleeds were taken between boosts to monitor the antibody titre and sensitivity, using hapten B conjugated to Horseradish peroxidase in a competitive ELISA, testing cross reactivity to 1-(3-Chlorophenyl)piperazine. In the case of the combination immunoassay, immunogens II and IV were administered to separate sheep and the resulting antisera were combined in a 1:1 ratio to form the antibody blend (1 ml of antisera from the sheep administered with Immunogen II was combined with 1 ml of antisera from the sheep administered with Immunogen IV). IgG was extracted from antisera and purified as described above, and the purified antibodies were immobilised on a biochip (9 mm×9 mm) (Randox Laboratories Ltd). The assay was based on competition for binding sites of a polyclonal antibody between Hapten B-HRP conjugate (Example 9) and phenylpiperazines and potential cross-reactants. The antibodies were immobilised and stabilised onto the biochip surface as previously described (Fitzgerald et al., 2005). Assay dilutent (155 μL), calibrator/phenylpiperazine or potential cross-reactant (25 μL) followed by Hapten-B conjugate (120 μL) were added to the appropriate biochip. The biochips were then incubated for 30 minutes at 30° C. on a thermoshaker set at 370 rpm. The biochips were then subjected to 2 quick wash cycles using the wash buffer provided, followed by 4×2 minute wash cycles. 250 μL of signal (1:1 luminol+peroxide, v/v) was then added to each biochip, and after 2 minutes the biochip carrier was imaged in the Evidence Investigator analyser.
(§3) Calibration curves were generated using the Biochip-based immunoassay. IC50 values were calculated from the graphs by taking 50% of the signal from the zero calibrator and reading the corresponding value on the x-axis, equivalent to the concentration of unlabelled ligand which reduces specific binding of labelled ligand by 50%. Specificity (measured as percentage cross-reactivity−[IC50 (analyte)/IC50 (cross-reactant)]×100) was also tested against a range of piperazine derivatives and other compounds sharing structural features (see table 1).

The test system of assay [2] is Combination of antibodies 1 & 2 (antisera combined in a 1:1 ratio). On the procedure: as §1, §2, §3
For assay [3], the system named is antibody 2 raised against Immunogen II. On the procedure:
as §1, §2, §3

Setting [4] is: Antibody 1, standardized to 1-(3-chlorophenyl)piperazine monohydrochloride, Hapten B-HRP conjugate.
Setting [5] is: Combination of antibodies 1 & 2, standardized to 1-(3-chlorophenyl)piperazine monohydrochloride, Hapten B-HRP conjugate.
The mark [6] stands for this setting: Antibody 2, standardized to 1-(3-chlorophenyl)piperazine monohydrochloride, Hapten B-HRP conjugate.
Setting [7] is: Antibody 1, Hapten B-HRP conjugate.
[8] abbreviates: Combination of antibodies 1 & 2, Hapten B-HRP conjugate.
[9] abbreviates: Antibody 2, Hapten B-HRP conjugate.

Where two headings read alike, the source gives them in different places.

Turning to `CCCCCn1cc(C(=O)Cc2ccccc2OC)c2ccccc21` [JWH-250], the “Cross-reactivity (%)” value in assay [1] (setting [4]), in assay [2] (setting [5]) and in assay [3] (setting [6]) was less than 1% each time.
Consider `O=c1n(CCCN2CCN(c3cccc(Cl)c3)CC2)nc2ccccn12` [Trazadone], for which the “Cross-reactivity (%)” value in assay [1] (setting [4]), in assay [2] and in assay [3] (setting [6]) was less than 1% throughout.
For `C1CNCCN1` [Piperazine], the “Cross-reactivity (%)” value in assay [1], in assay [2] and in assay [3] was less than 1% each time.
For `COc1ccc(N2CCNCC2)cc1` [1-(4-Methoxyphenyl)piperazine (pMeOPP), 1-(4-methoxyphenyl)piperazine], the “IC50” value amounted to 0.868 ng/mL in assay [1] (setting [7]), 10.226 ng/mL in assay [2] (setting [8]) and 19.771 ng/mL in assay [3] (setting [9]). The results for the “Cross-reactivity (%)” value in assay [1] (setting [4]), in assay [2] (setting [5]) and in assay [3] (setting [6]) were 68%, 26% and 20%, respectively.
On to `Nc1cccc(C(F)(F)F)c1O` [3-Amino-2-hydroxybenzotrifluoride], for which the “Cross-reactivity (%)” value in assay [1] (setting [4]), in assay [2] (setting [5]) and in assay [3] (setting [6]) was less than 1% in each case.
Turning to `c1ccc(CN2CCNCC2)cc1` [1-benzylpiperazine (BZP), 1-benzylpiperazine], the “IC50” value in assay [1] (setting [7]) turned out to be 232.706 ng/mL. The “Cross-reactivity (%)” value in assay [1] (setting [4]), in assay [2] (setting [5]) and in assay [3] (setting [6]) was less than 1% each time.
As to `CCCCCn1cc(C(=O)c2cccc3ccccc23)c2ccccc21` [JWH-018], the “Cross-reactivity (%)” value in assay [1] (setting [4]), in assay [2] (setting [5]) and in assay [3] (setting [6]) was less than 1% throughout.
Turning to `Fc1ccc(N2CCNCC2)cc1` [1-(4-Fluorophenyl)piperazine], the “IC50” value in assay [1] (setting [7]) stood at 1.085 ng/mL; in assay [2] (setting [8]), 5.113 ng/mL; in assay [3] (setting [9]), 7.646 ng/mL. Further, the “Cross-reactivity (%)” value is listed as 54% in assay [1] (setting [4]), 51% in assay [2] (setting [5]) and 38% in assay [3] (setting [6]).
`COc1ccccc1N1CCNCC1` [1-(2-Methoxyphenyl)piperazine]: the “IC50” value stood at 335.160 ng/mL in assay [1] (setting [7]), 15.553 ng/mL in assay [2] (setting [8]) and 8.770 ng/mL in assay [3] (setting [9]). In addition, the entries for the “Cross-reactivity (%)” value in assay [1] (setting [4]), in assay [2] (setting [5]) and in assay [3] (setting [6]) were less than 1%, 17% and 34%, respectively.
Regarding `CN1CCNC(c2ccccc2)C1` (centres unmarked) [1-Methyl-3-phenylpiperazine], the “Cross-reactivity (%)” value in assay [1] (setting [4]), in assay [2] (setting [5]) and in assay [3] (setting [6]) was less than 1% each time.
Regarding `c1ccc(N2CCNCC2)cc1` [1-phenylpiperazine], the results for the “IC50” value in assay [1] (setting [7]), in assay [2] (setting [8]) and in assay [3] (setting [9]) were 1.017 ng/mL, 2.163 ng/mL and 2.795 ng/mL, respectively. The “Cross-reactivity (%)” value was 106% in assay [1] (setting [4]), 125% in assay [2] (setting [5]) and 140% in assay [3] (setting [6]).
For the compound `OC1(c2ccc(Cl)cc2)CCNCC1` [4-(4-Chlorophenyl)-4-Hydroxypiperidine], the “IC50” value in assay [1] (setting [7]) is 218.980 ng/mL. Further, the “Cross-reactivity (%)” value in assay [1] (setting [4]), in assay [2] (setting [5]) and in assay [3] (setting [6]) was less than 1% in each case.
As for `CCC(C(=O)c1ccc2c(c1)OCO2)N1CCCC1` (centres unmarked) [MDPBP], the “Cross-reactivity (%)” value in assay [1] (setting [4]), in assay [2] (setting [5]) and in assay [3] (setting [6]) was less than 1% throughout.
As to `COc1cc(CCN)cc(OC)c1OC` [Mescaline], the “Cross-reactivity (%)” value in assay [1] (setting [4]), in assay [2] (setting [5]) and in assay [3] (setting [6]) was less than 1% each time.
As to `COC(=O)[C@@H]1C[C@H](OC(C)=O)C(=O)[C@H]2[C@@]1(C)CC[C@H]1C(=O)O[C@H](c3ccoc3)C[C@]21C` [Salvinorin A], the “Cross-reactivity (%)” value in assay [1] (setting [4]), in assay [2] (setting [5]) and in assay [3] (setting [6]) was less than 1% each time.
For the compound (+)-Pseudoephedrine, the “Cross-reactivity (%)” value in assay [1] (setting [4]), in assay [2] (setting [5]) and in assay [3] (setting [6]) was less than 1% in each case.
Regarding `CNC(C)C(=O)c1ccc(C)cc1` (centres unmarked) [Mephedrone], the “Cross-reactivity (%)” value in assay [1] (setting [4]), in assay [2] (setting [5]) and in assay [3] (setting [6]) was less than 1% in each case.
For the compound `Oc1cccc(N2CCNCC2)c1` [1-(3-hydroxyphenyl)piperazine], the “Cross-reactivity (%)” value is given as 31% in assay [1], 95% in assay [2] and 156% in assay [3]. Besides, the “IC50” value in assay [1] amounted to 3.469 ng/mL; in assay [2], 2.848 ng/mL; in assay [3], 2.504 ng/mL.
On to `Cc1cccc(N2CCNCC2)c1` [1-(3-Methylphenyl)piperazine (mMPP), 1-(3-Methylphenyl)piperazine], for which the “IC50” value came out at 0.840 ng/mL in assay [1] (setting [7]), 1.418 ng/mL in assay [2] (setting [8]) and 1.697 ng/mL in assay [3] (setting [9]). In addition, the figures for the “Cross-reactivity (%)” value in assay [1] (setting [4]), in assay [2] (setting [5]) and in assay [3] (setting [6]) were 129%, 191% and 230%, respectively.
`Clc1cccc(N2CCNCC2)c1` [1-(3-Chlorophenyl)piperazine (mCPP), 1-(3-chlorophenyl)piperazine]: the “IC50” value is 0.907 ng/mL in assay [1] (setting [7]), 2.075 ng/mL in assay [2] (setting [8]) and 2.554 ng/mL in assay [3] (setting [9]). The “Cross-reactivity (%)” value in assay [1] (setting [4]), in assay [2] (setting [5]) and in assay [3] (setting [6]) was 100% each time.
In the case of `FC(F)(F)c1cccc(N2CCNCC2)c1` [1-(3-Trifluoromethylphenyl)piperazine], the “IC50” value was 7.620 ng/mL in assay [1] (setting [7]), 5.958 ng/mL in assay [2] (setting [8]) and 4.831 ng/mL in assay [3] (setting [9]). In addition, the “Cross-reactivity (%)” value was 13% in assay [1] (setting [4]), 44% in assay [2] (setting [5]) and 61% in assay [3] (setting [6]).
Turning to `Oc1ccc(N2CCNCC2)cc1` [1-(4-hydroxyphenyl)piperazine], the entries for the “IC50” value in assay [1] (setting [7]), in assay [2] (setting [8]) and in assay [3] (setting [9]) were 1.029 ng/mL, 15.032 ng/mL and 28.195 ng/mL, respectively. The “Cross-reactivity (%)” value turned out to be 57% in assay [1] (setting [4]), 18% in assay [2] (setting [5]) and 10% in assay [3] (setting [6]).

The term IC50 denotes the concentration at which inhibition is half-maximal.
